Experimental data: ChEMBL document CHEMBL1149339, “Vasorelaxant activity of cyclic peptide, cyclosquamosin B, from Annona squamosa” (Bioorg Med Chem Lett, 2006)
Calls of active or inactive are those of the source.

Assays:
Type in all cases: functional, organism-based
Rattus norvegicus [1] = species: Rattus norvegicus; test: Inhibition of potassium ion depolarized calcium-induced contraction of rat aorta mediated by voltage dependent calcium channel at 10 uM
Rattus norvegicus [2] = species: Rattus norvegicus; test: Inhibition of norepinephrine-induced contraction in rat aorta mediated by receptor operated calcium channel in presence of nicardipine at 10 uM
Rattus norvegicus [3] = species: Rattus norvegicus; test: Vasorelaxant activity against norepinephrine-induced contraction of rat thoracic aortic ring with endothelium; conditions: Aorta
Rattus norvegicus [4] = species: Rattus norvegicus; test: Vasorelaxant activity against norepinephrine-induced contraction of rat thoracic aortic ring without endothelium; conditions: Aorta

Measured: Activity

CC[C@@H](C)[C@@H]1NC(=O)[C@@H]2CCCN2C(=O)[C@@H]2CCCN2C(=O)[C@H](CCC(N)=O)NC(=O)[C@H](CCSC)NC(=O)[C@H](CC(C)C)NC(=O)CN(C)C(=O)[C@H]([C@H](C)O)NC1=O
active: all assays above
